pIC50: −log10 of the molar value.
Target: T1, Cyclin E/CDK2 (Homo sapiens, UniProt P24941)
T1 construct: The expressed protein was approximately 34 kDa in size; made in house; host or cells: SF9 insect cells (baculovirus co-infection)
Assay: Cyclin E/CDK2 in vitro kinase assay (SPA, 33P-ATP, biotinylated Histone H1 peptide)
Assay type: biochemical
Settings: recombinant cyclin E/CDK2 from SF9 cells; 8 point serial dilutions in duplicate; 1 hour at room temperature

Work on `Clc1cnn2c(NCc3cncnc3)cc(-c3ccccc3)cc12` yielded a pIC50 of 7.11.
